Results published in patent US20260355196A1, “INHIBITORS AND DEGRADERS OF PIP4K PROTEIN” (Larkspur Biosciences, Inc., priority 2023, published 2026).

molecular target: T1, PIP4K2C (Homo sapiens, UniProt Q8TBX8); test: HiBiT PIP4K2C degradation assay in MOLT-4 cells (endogenous PIP4K2C C-terminally tagged with HiBiT); format: cell-based; design: untagged in primary human PBMCs and monocyte-derived dendritic cells; details: 6 hours of incubation time, rather than 24 hours; MOLT-4, top concentration 10 micromolar; read-out: HiBIT-degradation MOLT4 PIP4k2C DC50 (6 hours, marked *)
T1 sequence (Q8TBX8 1-421): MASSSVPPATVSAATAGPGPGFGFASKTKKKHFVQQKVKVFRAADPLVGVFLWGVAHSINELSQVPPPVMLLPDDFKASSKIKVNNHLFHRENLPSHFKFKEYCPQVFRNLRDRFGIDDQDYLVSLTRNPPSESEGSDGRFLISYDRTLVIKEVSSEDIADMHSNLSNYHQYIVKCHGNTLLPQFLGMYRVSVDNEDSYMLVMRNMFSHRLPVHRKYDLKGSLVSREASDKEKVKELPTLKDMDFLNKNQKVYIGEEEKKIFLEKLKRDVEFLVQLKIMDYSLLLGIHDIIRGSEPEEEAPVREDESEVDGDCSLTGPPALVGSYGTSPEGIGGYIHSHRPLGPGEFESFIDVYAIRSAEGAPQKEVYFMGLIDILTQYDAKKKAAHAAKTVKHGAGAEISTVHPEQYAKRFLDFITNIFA
Procedure, shortened: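 Cells are plated onto compound dilutions (10 points, 3-fold, top 10 micromolar) and incubated 24 or 6 hours at 37 C. Lytic HiBiT detection then quantifies tagged endogenous PIP4K2C in MOLT-4, and a Hill fit yields DC50.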

DC50 [nM] | SMILES
< 500 | O=C1CCC(Nc2ccc(N3CCN(C[C@H]4CC[C@H](CC(=O)N[C@H]5CC[C@H](Nc6ncc(F)c(-c7cccc(-c8ccc[nH]c8=O)c7)n6)CC5)CC4)CC3)c(F)c2)C(=O)N1 (stereo partly drawn) [Compound 703, trans-2-((1r,4R)-4-((4-(4-((2,6-dioxopiperidin-3-yl)amino)-2-fluorophenyl)piperazin-1-yl)methyl)cyclohexyl)-N-((1r,4R)-4-((5-fluoro-4-(3-(2-oxo-1,2-dihydropyridin-3-yl)phenyl)pyrimidin-2-yl)amino)cyclohexyl)acetamide]
< 500 | Cc1ccn(-c2cccc(-c3nc(N[C@H]4CC[C@H](C(=O)N5CCC(O)(CN6CCC(c7ccc(NC8CCC(=O)NC8=O)cc7F)CC6)CC5)CC4)ncc3F)c2)c(=O)c1 (stereo partly drawn) [Compound 472, trans-3-[3-fluoro-4-[1-[[1-[4-[[5-fluoro-4-[3-(4-methyl-2-oxo-1-pyridyl)phenyl]pyrimidin-2-yl]amino]cyclohexanecarbonyl]-4-hydroxy-4-piperidyl]methyl]-4-piperidyl]anilino]piperidine-2,6-dione]
< 500 | O=C1CCC(Nc2ccc(C3CCN(CC4CCN(C(=O)[C@H]5CC[C@H](Nc6ncc(F)c(-c7cccc(C8CC8)c7)n6)CC5)CC4)CC3)c(F)c2)C(=O)N1 (stereo partly drawn) [Compound 554, trans-3-((4-(1-((1-(4-((4-(3-cyclopropylphenyl)-5-fluoropyrimidin-2-yl)amino)cyclohexane-1-carbonyl)piperidin-4-yl)methyl)piperidin-4-yl)-3-fluorophenyl)amino)piperidine-2,6-dione]
< 500 | O=C1CCC(Nc2ccc(C3CCN([C@H]4CC[C@H](C(=O)N[C@H]5CC[C@H](Nc6ncc(F)c(-c7cccc(-c8ccc[nH]c8=O)c7)n6)CC5)CC4)CC3)c(F)c2)C(=O)N1 (stereo partly drawn) [Compound 396, trans-4-(4-(4-((2,6-dioxopiperidin-3-yl)amino)-2-fluorophenyl)piperidin-1-yl)-N-(trans-4-((5-fluoro-4-(3-(2-oxo-1,2-dihydropyridin-3-yl)phenyl)pyrimidin-2-yl)amino)cyclohexyl)cyclohexane-1-carboxamide]
< 500 | O=C1CCC(Nc2ccc(N3CCC(CN4CCN(C(=O)[C@H]5CC[C@H](Nc6ncc(F)c(-c7cccc(-c8ccc[nH]c8=O)c7)n6)CC5)CC4)CC3)c(F)c2)C(=O)N1 (stereo partly drawn) [Compound 430, 3-((3-fluoro-4-(4-((4-(trans-4-((5-fluoro-4-(3-(2-oxo-1,2-dihydropyridin-3-yl)phenyl)pyrimidin-2-yl)amino)cyclohexane-1-carbonyl)piperazin-1-yl)methyl)piperidin-1-yl)phenyl)amino)piperidine-2,6-dione]
< 500 | O=C1CCC(Nc2ccc(C3CCN([C@H]4CC[C@H](NC(=O)[C@H]5CC[C@H](Nc6ncc(F)c(-c7ccnc(N8CCCCC8=O)c7)n6)CC5)CC4)CC3)c(F)c2)C(=O)N1 (stereo partly drawn) [Compound 549, trans-N-(trans-4-(4-(4-((2,6-dioxopiperidin-3-yl)amino)-2-fluorophenyl)piperidin-1-yl)cyclohexyl)-4-((5-fluoro-4-(2-(2-oxopiperidin-1-yl)pyridin-4-yl)pyrimidin-2-yl)amino)cyclohexane-1-carboxamide]
< 500 | O=C1CCC(Nc2ccc(N3CCN(CC4(O)CCN(C(=O)[C@H]5CC[C@H](Nc6ncc(F)c(-c7cccc(N8CCCCC8)c7)n6)CC5)CC4)CC3)c(F)c2)C(=O)N1 (stereo partly drawn) [Compound 493, trans-3-[3-fluoro-4-[4-[[1-[4-[[5-fluoro-4-[3-(1-piperidyl)phenyl]pyrimidin-2-yl]amino]cyclohexanecarbonyl]-4-hydroxy-4-piperidyl]methyl]piperazin-1-yl]anilino]piperidine-2,6-dione]
< 500 | O=C1CCC(Nc2ccc(N3CCC(N4CCC(C(=O)N[C@H]5CC[C@H](Nc6ncc(F)c(-c7cccc(N8CCCCC8=O)c7)n6)CC5)CC4)C(F)(F)C3)c(F)c2)C(=O)N1 (stereo partly drawn) [Compound 499, trans-1′-(4-((2,6-dioxopiperidin-3-yl)amino)-2-fluorophenyl)-3′,3′-difluoro-N-(4-((5-fluoro-4-(3-(2-oxopiperidin-1-yl)phenyl)pyrimidin-2-yl)amino)cyclohexyl)-[1,4′-bipiperidine]-4-carboxamide]
< 500 | O=C1CCC(Nc2ccc(N3CCN(C[C@H]4CC[C@H](C(=O)N5CCC(Nc6ncc(F)c(-c7cccc(N8CCCOC8=O)c7)n6)CC5)CC4)CC3)c(F)c2)C(=O)N1 (stereo partly drawn) [Compound 667, 3-((3-fluoro-4-(4-((trans-4-(4-((5-fluoro-4-(3-(2-oxo-1,3-oxazinan-3-yl)phenyl)pyrimidin-2-yl)amino)piperidine-1-carbonyl)cyclohexyl)methyl)piperazin-1-yl)phenyl)amino)piperidine-2,6-dione]
< 500 | O=C1CCC(Nc2ccc(C3CCN([C@H]4CC[C@H](C(=O)N[C@H]5CC[C@H](Nc6ncc(F)c(-c7ccnc(N8CCCCC8=O)c7)n6)CC5)CC4)CC3)c(F)c2)C(=O)N1 (stereo partly drawn) [Compound 571, trans-(1r,4R)-4-(4-(4-((2,6-dioxopiperidin-3-yl)amino)-2-fluorophenyl)piperidin-1-yl)-N-((1r,4R)-4-((5-fluoro-4-(2-(2-oxopiperidin-1-yl)pyridin-4-yl)pyrimidin-2-yl)amino)cyclohexyl)cyclohexane-1-carboxamide]
< 500 | O=C1CCC(Nc2ccc(N3CCC(N4CCC(C(=O)N[C@H]5CC[C@H](Nc6ncc(F)c(-c7cccc(-n8ccccc8=O)c7)n6)CC5)CC4)C(F)(F)C3)c(F)c2)C(=O)N1 (stereo partly drawn) [Compound 598, trans-1′-(4-((2,6-dioxopiperidin-3-yl)amino)-2-fluorophenyl)-3′,3′-difluoro-N-(4-((5-fluoro-4-(3-(2-oxopyridin-1(2H)-yl)phenyl)pyrimidin-2-yl)amino)cyclohexyl)-[1,4′-bipiperidine]-4-carboxamide]
< 500 | O=C1CCC(Nc2ccc(N3CCC(OC4CCN(C(=O)[C@H]5CC[C@H](Nc6ncc(F)c(-c7cccc(-c8ccc[nH]c8=O)c7)n6)CC5)CC4)CC3)c(F)c2)C(=O)N1 (stereo partly drawn) [Compound 403, trans-3-((3-fluoro-4-(4-((1-(4-((5-fluoro-4-(3-(2-oxo-1,2-dihydropyridin-3-yl)phenyl)pyrimidin-2-yl)amino)cyclohexane-1-carbonyl)piperidin-4-yl)oxy)piperidin-1-yl)phenyl)amino)piperidine-2,6-dione]

same assay, conditions: 24 hours incubation, MOLT-4, top concentration 10 micromolar; read-out: HiBIT-degradation MOLT4 PIP4k2C 24 hours DC50

DC50 [nM] | SMILES
< 500 | O=C1CCC(Nc2ccc(N3CCN(CC4CCN(C(=O)[C@H]5CC[C@H](Nc6ncc(F)c(-c7cccc(-c8ccc[nH]c8=O)c7)n6)CC5)CC4)CC3)c(F)c2)C(=O)N1 (stereo partly drawn) [Compound 376, trans-3-((3-fluoro-4-(4-((1-(4-((5-fluoro-4-(3-(2-oxo-1,2-dihydropyridin-3-yl)phenyl)pyrimidin-2-yl)amino)cyclohexane-1-carbonyl)piperidin-4-yl)methyl)piperazin-1-yl)phenyl)amino)piperidine-2,6-dione]
< 500 | O=C1CCC(Nc2ccc(N3CCC(CN4CCC(NC(=O)[C@H]5CCC[C@@H](Nc6ncc(F)c(-c7cccc(-n8ccccc8=O)c7)n6)C5)CC4)CC3)c(F)c2)C(=O)N1 (relative stereo) [Compound 336, cis-N-(1-((1-(4-((2,6-dioxopiperidin-3-yl)amino)-2-fluorophenyl)piperidin-4-yl)methyl)piperidin-4-yl)-3-((5-fluoro-4-(3-(2-oxopyridin-1(2H)-yl)phenyl)pyrimidin-2-yl)amino)cyclohexane-1-carboxamide]
< 500 | O=C1CCC(Nc2ccc(N3CCC(N4CCC(CNC(=O)[C@H]5CCC[C@@H](Nc6ncc(F)c(-c7cccc(-n8ccccc8=O)c7)n6)C5)CC4)CC3)c(F)c2)C(=O)N1 (relative stereo) [Compound 361, cis-N-((1′-(4-((2,6-dioxopiperidin-3-yl)amino)-2-fluorophenyl)-[1,4′-bipiperidin]-4-yl)methyl)-3-((5-fluoro-4-(3-(2-oxopyridin-1(2H)-yl)phenyl)pyrimidin-2-yl)amino)cyclohexane-1-carboxamide]
< 500 | CC(C(=O)N1CCC(Nc2ncc(F)c(-c3cccc(-n4ccccc4=O)c3)n2)CC1)N1CCC(CN2CCC(c3ccc4c(c3)oc(=O)n4C3CCC(=O)NC3=O)CC2)CC1 (stereo not drawn) [Compound 370, 3-(6-(1-((1-(1-(4-((5-fluoro-4-(3-(2-oxopyridin-1(2H)-yl)phenyl)pyrimidin-2-yl)amino)piperidin-1-yl)-1-oxopropan-2-yl)piperidin-4-yl)methyl)piperidin-4-yl)-2-oxobenzo[d]oxazol-3 (2H)-yl)piperidine-2,6-dione]
500 to 1000 | O=C(COc1cccc2c1C(=O)N(C1CCC(=O)NC1=O)C2=O)NCCCCCCCCCC(=O)N1CCC(Nc2ncc(Cl)c(-c3cccc(-c4ccccc4)c3)n2)CC1 (stereo not drawn) [Compound 66, N-(10-(4-((4-([1,1′-biphenyl]-3-yl)-5-chloropyrimidin-2-yl)amino)piperidin-1-yl)-10-oxodecyl)-2-((2-(2,6-dioxopiperidin-3-yl)-1,3-dioxoisoindolin-4-yl)oxy)acetamide]
< 500 | O=C1CCC(Nc2ccc(N3CCC(N4CCN(CCC(=O)N5CCC(Nc6ncc(Cl)c(-c7cccc(-c8ccccc8)c7)n6)CC5)CC4)CC3)cc2)C(=O)N1 (stereo not drawn) [Compound 84, 3-((4-(4-(4-(3-(4-((4-([1,1′-biphenyl]-3-yl)-5-chloropyrimidin-2-yl)amino)piperidin-1-yl)-3-oxopropyl)piperazin-1-yl)piperidin-1-yl)phenyl)amino)piperidine-2,6-dione]
